# Measured values taken from US8383616B2, “Aryl isoxazole compounds with antitumoural activities” (Sigma-Tau Industrie Farmaceutiche Riunite SpA, priority 2008, dated 2013).
# Where a name gives a salt, the structure may show the parent alone.
# Experiments:
# Hsp90 = target: T1, Hsp90 (Homo sapiens, UniProt P07900); experiment: Fluorescence polarization (FP) binding assay, displacement of GM-BODIPY; details: GM-BODIPY tracer, 125 nM Hsp90, 4 h at 4° C.; read-out: F.P. binding assay IC50
# T1 construct: purchased Stressgen SPP-776
# Protocol: Fluorescence Polarization (FP)
# GM-BODIPY (PerkinElmer, CUSN60342000MG) was previously dissolved in DMSO to obtain 10 mM stock solutions and kept at −20° C. until use.
# The compounds were previously dissolved in DMSO to obtain stock solutions and kept at −20° C. The day of experiment, the compounds were prepared by serial dilutions in HFB. Before each use, 0.1 mg/ml Bovine Gamma globulin and 2 mM DTT were freshly added.
# The plate was mixed on a shaker at 4° C. for 4 hours, and the FP values in mP (millipolarization units) were recorded. […] Curve fitting was performed using Prism GraphPad software program (GraphPad software, Inc., San Diego, Calif.).
# Curve fitting was performed using Prism GraphPad software program (GraphPad software, Inc., San Diego, Calif.).
# [1] = tested on: NCI-H460 non-small cell lung carcinoma cells; experiment: Cytotoxicity assay (sulphorodamine B test), NCI-H460; format: cell-based
# Protocol: To evaluate the effect of the compounds on cells survival, the sulphorodamine B test was used. To test the effects of the compounds on cell growth, NCI-H460 non-small cell lung carcinoma cells were used. Tumour cells were grown in RPMI 1640 containing 10% fetal bovine serum (GIBCO).
# (§1) Tumour cells were seeded in 96-well tissue culture plates at approximately 10% confluence and were allowed to attach and recover for at least 24 h. Varying concentrations of the drugs were then added to each well to calculate their IC50 value (the concentration which inhibits the 50% of cell survival). The plates were incubated at 37° C. for 72 h. At the end of the treatment, the plates were washed by removal of the supernatant and addition of phosphate buffered saline (PBS) 3 times. 200 μl PBS and 50 μl of cold 80% trichloroacetic acid (TCA) were added. The plates were incubated on ice for at least 1 h. TCA was removed, the plates were washed 3 times by immersion in distilled water and dried on paper and at 40° C. for 5 min. Then 200 μl of 0.4% sulphorodamine B in 1% acetic acid were added. The plates were incubated at RT for 30 min. Sulphorodamine B was removed, the plates were washed by immersion in 1% acetic acid for 3 times, then they were dried on paper and at 40° C. for 5 min. Then, 200 μl Tris 10 mM were added, the plates were kept under stirring for 20 min. The cell survival was determined as optical density by a Multiskan spectrofluorimeter at 540 nm. The amount of cells killed was calculated as the percentage decrease in sulphorodamine B binding compared with control cultures.
# (§2) The IC50 values were calculated with the “ALLFIT” program.
# (§3) The antiproliferative IC50 was evaluated as drug concentration required for 50% reduction of cell growth as compared with untreated controls after 72-h exposure to the drug. The IC50±SD values reported were calculated by ALLFIT program.
# [2] = tested on: human epithelial carcinoma cell line A431; experiment: Cytotoxicity assay (sulphorodamine B test), A431; format: cell-based
# Protocol: as §1, §2
# The antiproliferative activity of novel Hsp90 inhibitors was evaluated on NCI-H460 non-small cell lung carcinoma cells and on a human epithelial carcinoma cell line A431.
# as §3
# [3] = Homo sapiens, NCI-H460, 72-h exposure
# [4] = Homo sapiens, A-431, 72-h exposure
IC50 (Hsp90) [nM],Compound,IC50 ([1]; 72-h exposure) [nM],IC50 ([2]; 72-h exposure) [nM],"IC50 [1, 3] [nM]","IC50 [2, 4] [nM]"
< 100,"CCNC(=O)c1noc(-c2cc(Cl)c(O)cc2O)c1NC(C)=O [Example 1, 4-acetylamino-5-(5-chloro-2,4-dihydroxy-phenyl)-isoxazole-3-carboxylic acid ethylamide]",–,–,1000 to 10000,1000 to 10000
100 to 1000,"CCNC(=O)c1noc(-c2cc(Cl)c(O)cc2O)c1NC(=O)c1ccc(OC)cc1 [Example 2, 5-(5-chloro-2,4-dihydroxy-phenyl)-4-(4-methoxy-benzoylamino)-isoxazole-3-carboxylic acid ethylamide]",–,–,1000 to 10000,100 to 1000
100 to 1000,"CCNC(=O)c1noc(-c2cc(Cl)c(O)cc2O)c1NC(=O)c1ccc(OC)c(OC)c1 [Example 3, 5-(5-chloro-2,4-dihydroxy-phenyl)-4-(3,4-dimethoxy-benzoylamino)-isoxazole-3-carboxylic acid ethylamide]",–,–,1000 to 10000,100 to 1000
100 to 1000,"CCNC(=O)c1noc(-c2cc(Cl)c(O)cc2O)c1NC(=O)c1cc(OC)c(OC)c(OC)c1 [Example 4, 5-(5-chloro-2,4-dihydroxy-phenyl)-4-(3,4,5-trimethoxy-benzoylamino)-isoxazole-3-carboxylic acid ethylamide]",–,–,100 to 1000,100 to 1000
< 100,"CCNC(=O)c1noc(-c2cc(Cl)c(O)cc2O)c1NC(=O)C(C)(C)C [Example 5, 5-(5-chloro-2,4-dihydroxy-phenyl)-4-(2,2-dimethyl-propionylamino)-isoxazole-3-carboxylic acid ethylamide]",–,–,100 to 1000,< 100
< 100,"CCNC(=O)c1noc(-c2cc(Cl)c(O)cc2O)c1NC(=O)c1sccc1C [Example 8, 5-(5-chloro-2,4-dihydroxy-phenyl)-4-[(3-methyl-thiophene-2-carbonyl)-amino]-isoxazole-3-carboxylic acid ethylamide]",–,–,100 to 1000,< 100
100 to 1000,"CCNC(=O)c1noc(-c2cc(Cl)c(O)cc2O)c1NC(=O)c1ccc(Br)cc1 [Example 10, 4-(4-bromo-benzoylamino)-5-(5-chloro-2,4-dihydroxy-phenyl)-isoxazole-3-carboxylic acid ethylamide]",–,–,1000 to 10000,100 to 1000
100 to 1000,"CCNC(=O)c1noc(-c2cc(C(C)C)c(O)cc2O)c1NC(=O)c1ccc(OC)cc1 [Example 11, 5-(2,4-dihydroxy-5-isopropyl-phenyl)-4-(4-methoxy-benzoylamino)-isoxazole-3-carboxylic acid ethylamide]",–,–,< 100,–
< 100,"CCNC(=O)c1noc(-c2cc(C(C)C)c(O)cc2O)c1NC(=O)c1ccc2cc[nH]c2c1 [Example 17, 1H-indole-6-carboxylic acid [5-(2,4-dihydroxy-5-isopropyl-phenyl)-3-ethylcarbamoyl-isoxazol-4-yl]-amide]",–,–,100 to 1000,100 to 1000

# Continued, compound first:
Compound,IC50 (Hsp90) [nM],IC50 ([1]; 72-h exposure) [nM],IC50 ([2]; 72-h exposure) [nM],"IC50 [1, 3] [nM]","IC50 [2, 4] [nM]"
"5-(2,4-dihydroxy-5-isopropyl-phenyl)-4-(4-morpholin-4-yl-methyl-benzoyl amino)-isoxazole-3-carboxylic acid ethylamide hydrochloride [Example 18]",< 100,< 100,< 100,–,–
"CCNC(=O)c1noc(-c2cc(Cl)c(O)cc2O)c1NC(=O)C12CC3CC(CC(C3)C1)C2 [Example 6, 4-[(adamantane-1-carbonyl)-amino]-5-(5-chloro-2,4-dihydroxy-phenyl)-isoxazole-3-carboxylic acid ethylamide]",100 to 1000,–,–,100 to 1000,100 to 1000
"C=CC(=O)Nc1c(C(=O)NCC)noc1-c1cc(Cl)c(O)cc1O [Example 7, 4-acryloylamino-5-(5-chloro-2,4-dihydroxy-phenyl)-isoxazole-3-carboxylic acid ethylamide]",100 to 1000,–,–,1000 to 10000,100 to 1000
"CCNC(=O)c1noc(-c2cc(Cl)c(O)cc2O)c1NC(=O)CCN1CCOCC1 [Example 9, 5-(5-chloro-2,4-dihydroxy-phenyl)-4-(3-morpholin-4-yl-propionylamino)-isoxazole-3-carboxylic acid ethylamide]",100 to 1000,–,–,100 to 1000,100 to 1000
"CCNC(=O)c1noc(-c2cc(C(C)C)c(O)cc2O)c1NC(C)=O [Example 12, 4-acetylamino-5-(2,4-dihydroxy-5-isopropyl-phenyl)-isoxazole-3-carboxylic acid ethylamide]",< 100,–,–,< 100,–
"CCNC(=O)c1noc(-c2cc(C(C)C)c(O)cc2O)c1NC(=O)C(C)(C)C [Example 13, 5-(2,4-dihydroxy-5-isopropyl-phenyl)-4-(2,2-dimethyl-propionylamino)-isoxazole-3-carboxylic acid ethylamide]",< 100,–,–,< 100,–
"CCNC(=O)c1noc(-c2cc(C(C)C)c(O)cc2O)c1NC(=O)c1sccc1C [Example 14, 5-(2,4-dihydroxy-5-isopropyl-phenyl)-4-[(3-methyl-thiophene-2-carbonyl)-amino]-isoxazole-3-carboxylic acid ethylamide]",< 100,–,–,< 100,< 100
"CCNC(=O)c1noc(-c2cc(C(C)C)c(O)cc2O)c1NC(=O)CCN1CCOCC1 [Example 15, 5-(2,4-dihydroxy-5-isopropyl-phenyl)-4-(3-morpholin-4-yl-propionylamino)-isoxazole-3-carboxylic acid ethylamide]",100 to 1000,–,–,100 to 1000,–
"CCNC(=O)c1noc(-c2cc(C(C)C)c(O)cc2O)c1NC(=O)CCN1CCN(C)CC1 [Example 16, 4-(3-(4-methylpiperazin-1-yl)propanamido)-N-ethyl-5-(2,4-dihydroxy-5-isopropylphenyl)-isoxazole-3-carboxamide]",100 to 1000,–,–,1000 to 10000,100 to 1000
"CCNC(=O)c1noc(-c2cc(C(C)C)c(O)cc2O)c1NC(=O)C1CCCCC1 [Example 19, 4-(cyclohexanecarbonyl-amino)-5-(2,4-dihydroxy-5-isopropyl-phenyl)-isoxazole-3-carboxylic acid ethylamide]",100 to 1000,–,–,< 100,< 100
"CCNC(=O)c1noc(-c2cc(C(C)C)c(O)cc2O)c1NC(=O)C1CCC(OC)CC1 (stereo not drawn) [Example 23, 5-(2,4-dihydroxy-5-isopropyl-phenyl)-4-[(4-methoxy-cyclohexanecarbonyl)-amino]-isoxazole-3-carboxylic acid ethylamide]",< 100,–,–,< 100,–
"CCNC(=O)c1noc(-c2cc(C(C)C)c(O)cc2O)c1NC(=O)C1CCC(C(C)(C)C)CC1 (stereo not drawn) [Example 24, 4-[(4-tert-butyl-cyclohexanecarbonyl)-amino]-5-(2,4-dihydroxy-5-isopropyl-phenyl)-isoxazole-3-carboxylic acid ethylamide]",< 100,–,–,100 to 1000,–
"CCNC(=O)c1noc(-c2cc(C(C)C)c(O)cc2O)c1NC(=O)[C@H]1CC[C@H](N)CC1 [Example 25, 4-[(trans-4-amino-cyclohexanecarbonyl)-amino]-5-(2,4-dihydroxy-5-isopropyl-phenyl)-isoxazole-3-carboxylic acid ethylamide hydrochloride]",< 100,–,–,1000 to 10000,–
"CCNC(=O)c1noc(-c2cc(C(C)C)c(O)cc2O)c1NC(=O)[C@H]1CC[C@H](CN)CC1 [Example 26, 4-[(trans-4-aminomethyl-cyclohexanecarbonyl)-amino]-5-(2,4-dihydroxy-5-isopropyl-phenyl)-isoxazole-3-carboxylic acid ethylamide hydrochloride]",< 100,–,–,1000 to 10000,–
"COc1ccc(C(=O)Nc2c(C(=O)N3CC(F)(F)C3)noc2-c2cc(Cl)c(O)cc2O)cc1 [Example 34, 4-(4-methoxybenzamido)-5-(5-chloro-2,4-dihydroxyphenyl)-isoxazol-3-yl-(3,3-difluoroazetidin-lyl)-methanone]",–,–,–,> 10000,> 10000
